According to paper PMC3608422 (Xenobiotica; the fate of foreign compounds in biological …, 2011):
Like-named read-outs stand apart in the source and are kept apart here.

What was measured:
CB2Rs = conditions: read-out: affinity for CB2Rs; ref Mechoulam et al. 1995; cited from earlier work
CB1Rs = conditions: read-out: affinity for CB1Rs; ref Mechoulam et al. 1995; cited from earlier work
mCB1Rs = mCB1Rs (Mus musculus, UniProt P47746); type: biochemical; conditions: for effect on basal G-protein activity ([35S]GTPγS binding): 10 µM
Chain of mCB1Rs (P47746 whole entry): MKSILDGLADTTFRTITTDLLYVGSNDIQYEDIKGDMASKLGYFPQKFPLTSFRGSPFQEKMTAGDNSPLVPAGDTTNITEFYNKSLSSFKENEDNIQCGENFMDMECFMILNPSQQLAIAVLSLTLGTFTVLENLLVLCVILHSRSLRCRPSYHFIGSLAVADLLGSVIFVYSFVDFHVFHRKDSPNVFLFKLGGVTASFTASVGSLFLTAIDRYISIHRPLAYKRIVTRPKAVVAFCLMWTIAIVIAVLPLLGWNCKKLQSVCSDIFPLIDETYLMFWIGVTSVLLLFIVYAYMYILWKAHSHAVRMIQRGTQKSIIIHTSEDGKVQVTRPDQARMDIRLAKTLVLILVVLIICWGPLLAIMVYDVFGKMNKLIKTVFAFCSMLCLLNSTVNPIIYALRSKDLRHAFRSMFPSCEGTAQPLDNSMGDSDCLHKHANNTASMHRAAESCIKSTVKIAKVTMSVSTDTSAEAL

[1] = target: mouse brain CB1Rs (mCB1Rs) (Mus musculus, UniProt P47746); experiment: biochemical; type: binding; conditions: for Selectivity: mCB1 versus hCB2 binding; for hCB2/mCB1 (Ki ratio): ratio of Ki hCB2 to Ki mCB1
Chain of mouse brain CB1Rs (mCB1Rs) (P47746 whole entry): as above

[2] = target: human CB2Rs (hCB2Rs) stably expressed in CHO cells (Homo sapiens, UniProt P34972); experiment: biochemical; type: binding
Chain of human CB2Rs (hCB2Rs) stably expressed in CHO cells (P34972 whole entry): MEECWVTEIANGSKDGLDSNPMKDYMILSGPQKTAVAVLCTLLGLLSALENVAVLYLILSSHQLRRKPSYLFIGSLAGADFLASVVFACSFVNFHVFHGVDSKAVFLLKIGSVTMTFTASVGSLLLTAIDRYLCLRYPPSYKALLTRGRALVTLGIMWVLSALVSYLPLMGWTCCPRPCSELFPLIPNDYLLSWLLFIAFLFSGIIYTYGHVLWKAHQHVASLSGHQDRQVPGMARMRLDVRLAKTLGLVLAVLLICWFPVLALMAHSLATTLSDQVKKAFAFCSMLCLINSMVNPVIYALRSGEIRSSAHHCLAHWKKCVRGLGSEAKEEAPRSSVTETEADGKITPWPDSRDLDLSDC

[3] = co-administration with 10 µM of the compound
[4] = co-administration with 30 µM of the compound

SMILES | Ki [1] [µM] | Selectivity [1] | hCB2/mCB1 (Ki ratio) [1] | Ki [2] [µM] | effect on basal G-protein activity ([35S]GTPγS binding) (mCB1Rs; mouse brain membranes) | further results
CCCCC/C=C\C/C=C\C/C=C\C/C=C\CCCC(=O)OC(CO)CO [2-arachidonoylglycerol] | – | – | – | – | – | Ki (CB2Rs): ~1.5 µM; Ki (CB1Rs): ~0.5 µM
CC1=CC[C@@H]2[C@@H](C1)c1c(O)cc(CC#CCCCNS(C)(=O)=O)cc1OC2(C)C [O-2050, reference compound] | – | – | – | – | – | effect on G-protein activity ([35S]GTPγS binding) (mCB1Rs; mouse brain membranes, 1 µM): produced no effect
CC(C)C=Cc1c(O)cc(/C=C/c2ccc(O)c(O)c2)cc1O [tA1, trans-4-(3-methyl-1-butenyl)-3,5,3′,4′-tetrahydroxystilbene] | 5.6 ± 0.4 | Non-selective | 2.3 | 12.6 ± 1.7 | markedly reduce | glucuronidation by UGT1A1 (UGT1A1): no visible glucuronidation; concentration at which substrate inhibition is seen (UGT1A9): > 500 µM; ED50 of CB1R agonist CP-55,940 to activate G-proteins on co-administration (mCB1Rs; [3]): 0.028 µM; fold increase (shift-to-the-right) in ED50 of CP-55,940 (mCB1Rs; [3]): 7 fold; maximal response produced by CP-55,940 on co-administration (mCB1Rs; [3]): 0.22 ± 0.04 pmol/mg protein; attenuation by O-2050 of the reduction of basal G-protein activity (mCB1Rs; compound 10 µM co-incubated with neutral CB1R antagonist O-2050 1 µM): did not significantly attenuate
CC(C)C=Cc1c(O)cc(/C=C/c2ccc(O)cc2)cc1O [tA3, trans-4-(3-methyl-1-butenyl)-3,5,4′-trihydroxystilbene] | 17.5 ± 3.4 | Non-selective | 0.6 | 11.3 ± 0.6 | have little effect | ED50 of CB1R agonist CP-55,940 to activate G-proteins on co-administration (mCB1Rs; [4]): 0.127 µM; fold increase (shift-to-the-right) in ED50 of CP-55,940 (mCB1Rs; [4]): 30 fold
Oc1cc(O)cc(/C=C/c2ccc(O)c(O)c2)c1 [tPice, trans 3,5,3′,4′-tetrahydroxystilbene, reference compound] | 11.7 ± 1 | CB1 | 9.7 | 114 ± 7.8 | markedly reduce | –
Oc1ccc(/C=C/c2cc(O)cc(O)c2)cc1 [tRes, trans-3,5,4′-trihydroxystilbene, reference compound] | 14.3 ± 1.6 | – | – | – | – | –
